{"source": "patent US6376478B1", "about": "“Pharmaceutical compositions and methods for treating anxiety, anxiety disorders and memory impairment using naaladase inhibitors” (Guilford Pharmaceuticals Inc., priority 1999, dated 2002)", "key": {"[1]": {"assay": "Passive avoidance anxiolytic model (shuttlebox, latency to cross)", "type": "in vivo", "settings": "for Latency to Cross, Mean / Latency to Cross, individual animals: Table II", "description": "The passive avoidance test consists of an acquisition and a retention trial. On the day prior to dosing, the animal is placed into the shuttlebox and allowed to acclimate. A conditioned stimulus (light) is presented for approximately 100 seconds. When the animal crosses to the dark compartment, a mild (0.5 mA) footshock is presented until the animal returns to the lighted compartment or for approximately 10 seconds. Animals failing to cross during acquisition trial is randomly replaced. The day following acquisition, animals are administered test article, saline or flurazepam 10 minutes prior to being placed in the shuttlebox and tested for retention as described above. Latency to cross (in seconds) is recorded."}, "NAALADase": {"target": "NAALADase (Homo sapiens, UniProt Q04609)", "sequence (Q04609 whole entry)": "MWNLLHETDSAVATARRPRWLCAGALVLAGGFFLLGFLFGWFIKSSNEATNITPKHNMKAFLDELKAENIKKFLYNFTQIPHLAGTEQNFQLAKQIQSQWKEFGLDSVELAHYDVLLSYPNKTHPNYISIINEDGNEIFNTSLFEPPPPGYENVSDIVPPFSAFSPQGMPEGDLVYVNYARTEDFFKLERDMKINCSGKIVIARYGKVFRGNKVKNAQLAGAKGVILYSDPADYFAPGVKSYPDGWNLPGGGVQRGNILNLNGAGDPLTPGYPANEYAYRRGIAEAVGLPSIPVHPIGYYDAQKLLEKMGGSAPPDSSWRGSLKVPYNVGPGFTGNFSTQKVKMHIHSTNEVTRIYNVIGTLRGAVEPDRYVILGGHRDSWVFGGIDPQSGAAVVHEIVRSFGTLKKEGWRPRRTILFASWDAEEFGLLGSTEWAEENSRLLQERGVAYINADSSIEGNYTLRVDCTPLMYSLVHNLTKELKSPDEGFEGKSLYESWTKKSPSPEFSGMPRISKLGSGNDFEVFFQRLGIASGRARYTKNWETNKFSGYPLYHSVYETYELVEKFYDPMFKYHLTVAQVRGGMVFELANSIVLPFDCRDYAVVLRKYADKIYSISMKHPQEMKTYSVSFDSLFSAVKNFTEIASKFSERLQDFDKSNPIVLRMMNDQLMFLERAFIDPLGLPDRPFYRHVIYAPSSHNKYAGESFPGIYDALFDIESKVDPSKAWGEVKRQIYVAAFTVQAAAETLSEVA", "assay": "In vitro inhibition of NAALADase activity", "type": "biochemical"}, "[2]": {"settings": "Flurazepam 3 mg/kg IP group, acquisition is on the day prior to dosing"}, "[3]": {"settings": "Flurazepam 5 mg/kg IP group, Table I second study, day prior to dosing"}, "[4]": {"settings": "Flurazepam 5 mg/kg IP, Table I second study"}}, "note": "Values joined by “and” are separate entries in the source; they are usually repeats but may differ in a detail not shown here. Equal entries are not always repeated."}
{"compound": "O=C(O)CCC(CCS)C(=O)O", "note": "(stereo not shown) [Compound 1, 2-(2-sulfanylethyl)pentanedioic acid]", "values": [{"measurement": "anxiolytic properties in passive avoidance", "setting": "[1]; Example 14", "result": "exhibit anxiolytic properties"}, {"measurement": "performance compared with flurazepam in passive avoidance", "setting": "[1]; Example 14, in some experiments", "result": "performed better than the known anxiolytic agent, flurazepam"}, {"measurement": "Latency to Cross, Mean", "setting": "[1]; Compound 1 1 mg/kg PO", "result": 34.8, "unit": "s"}, {"measurement": "Latency to Cross, individual animals", "setting": "[1]; Compound 1 1 mg/kg PO, 1 mg/kg", "result": "5.9 seconds and 15.8 seconds and 28.4 seconds and 30.3 seconds and 100.0 seconds (3×) and 12.3 seconds and 27.9 seconds and 23.5 seconds and 3.9 seconds and 13.1 seconds and 0.2 seconds and 41.3 seconds and 20.1 seconds"}, {"measurement": "Latency to Cross, Mean", "setting": "[1]; Compound 1 10 mg/kg PO", "result": 23.6, "unit": "s"}, {"measurement": "Latency to Cross, individual animals", "setting": "[1]; Compound 1 10 mg/kg PO, 10 mg/kg", "result": "1.8 s and 28.5 s and 64.1 s and 3.2 s and 14.7 s and 10.3 s and 3.3 s and 24.6 s and 9.4 s and 100.0 s and 22.7 s and 6.6 s and 14.0 s and 38.8 s and 12.1 s"}, {"measurement": "Latency to Cross, Mean", "setting": "[1]; Compound 1 100 mg/kg PO", "result": 18.0, "unit": "s"}, {"measurement": "Latency to Cross, individual animals", "setting": "[1]; Compound 1 100 mg/kg PO, 100 mg/kg", "result": "15.0 s and 19.2 s and 5.6 s and 19.3 s and 6.2 s and 55.7 s and 25.5 s and 21.5 s and 6.6 s and 15.1 s and 8.4 s and 17.4 s and 0.5 s and 0.7 s and 52.8 s"}, {"measurement": "Ki", "setting": "NAALADase", "result": 510, "unit": "nM"}]}
{"compound": "CCN(CC)CCN1C(=O)CN=C(c2ccccc2F)c2cc(Cl)ccc21", "note": "[Flurazepam, flurazepam, reference compound]", "values": [{"measurement": "Latency to Cross, Acquisition Trial, MEAN", "setting": "[1]; [2]", "result": 10.1, "unit": "s"}, {"measurement": "Latency to Cross, Acquisition Trial, individual animals", "setting": "[1]; [2]", "result": "7.0 s and 9.5 s and 8.8 s and 2.8 s and 19.3 s and 5.4 s and 8.2 s and 28.2 s and 7.1 s and 2.4 s and 16.7 s and 8.4 s and 11.3 s and 6.9 s and 9.1 s"}, {"measurement": "Latency to Cross, Retention Trial, MEAN", "setting": "[1]; Flurazepam 3 mg/kg IP, 10 minutes before test", "result": 47.5, "unit": "s"}, {"measurement": "Latency to Cross, Retention Trial, individual animals", "setting": "[1]; Flurazepam 3 mg/kg IP, 10 minutes before test, stimulus about 100 seconds", "result": "83.3 seconds and 100.0 seconds (4×) and 5.5 seconds and 4.7 seconds and 16.1 seconds and 65.3 seconds and 6.9 seconds and 2.1 seconds and 34.1 seconds and 2.2 seconds and 47.5 seconds and 34.9 seconds"}, {"measurement": "Latency to Cross, Acquisition Trial, MEAN", "setting": "[1]; [3]", "result": 8.4, "unit": "s"}, {"measurement": "Latency to Cross, Acquisition Trial, individual animals", "setting": "[1]; [3]", "result": "6.6 s and 39.8 s and 2.7 s and 10.6 s and 0.5 s and 0.1 s and 7.4 s and 4.0 s and 4.9 s and 14.7 s and 10.1 s and 9.5 s and 1.9 s and 12.9 s and 0.7 s"}, {"measurement": "Latency to Cross, Retention Trial, MEAN", "setting": "[1]; [4]", "result": 20.8, "unit": "s"}, {"measurement": "Latency to Cross, Retention Trial, individual animals", "setting": "[1]; [4]", "result": "11.2 s and 56.3 s and 10.5 s and 23.9 s and 6.5 s and 6.0 s and 13.4 s and 0.8 s and 21.4 s and 2.9 s and 67.2 s and 19.0 s and 58.3 s and 4.8 s and 9.7 s"}, {"measurement": "Latency to Cross, Mean", "setting": "[1]; Flurazepam 5 mg/kg IP", "result": 12.9, "unit": "s"}, {"measurement": "Latency to Cross, individual animals", "setting": "[1]; Flurazepam 5 mg/kg IP", "result": "4.7 seconds and 9.6 seconds and 4.1 seconds (2×) and 26.0 seconds and 0.3 seconds (2×) and 4.0 seconds (2×) and 8.0 seconds and 3.5 seconds and 12.0 seconds and 16.9 seconds and 89.0 seconds and 6.4 seconds"}]}
